Assay results: the supplement of paper PMC11451515

Experiments:
Test in all cases: AUC of viability dose-response curve (% viability x log10 dose units); higher = less sensitive
Settings in all cases: 48 h
[1] = test system: NOMO1
Procedure, shortened: (§1)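 Medium-adapted leukemia cells in 1536-well plates, at 500 or 1000 cells/well, were incubated for 48 h at 37°C with library compounds in DMSO at 11 threefold doses from 47 μM to 0.79 nM. CellTiter-Glo One luminescence normalised per plate to DMSO and cell-free wells was fitted with a four-parameter log-logistic model over log10 doses. Area under the curve was integrated from this fit by trapezoidal rule, with curves beyond full viability scaled and failed quality-control curves removed.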

[2] = test system: P12-Ichikawa
Procedure, shortened: as §1

[3] = test system: SEM cells
Procedure, shortened: as §1

[4] = RPMI 5 mM glucose + 10% dialyzed FBS

Structure (SMILES)	AUC of viability dose-response curve ([1]; HPLM + 10% dialyzed FBS)	AUC of viability dose-response curve ([1]; RPMI 5 mM glucose + 10% FBS)	AUC of viability dose-response curve [1, 4]	AUC of viability dose-response curve ([2]; HPLM + 10% dialyzed FBS)	AUC of viability dose-response curve ([2]; RPMI 5 mM glucose + 10% FBS)	AUC of viability dose-response curve [2, 4]	AUC of viability dose-response curve ([3]; HPLM + 10% dialyzed FBS)	AUC of viability dose-response curve ([3]; RPMI 5 mM glucose + 10% FBS)	AUC of viability dose-response curve [3, 4]
C#CCC(Cc1cnc2nc(N)nc(N)c2n1)c1ccc(C(=O)N[C@@H](CCC(=O)O)C(=O)O)cc1 (some centres not stated)	307	380	265	227	250	228	274	358	232
CC[C@H](C)C(=O)O[C@H]1C[C@@H](C)\C=C2\C=C/[C@H](C)[C@H](CC[C@@H]3C[C@@H](O)CC(=O)O3)[C@@H]12	437	411	411	415	373	379	384	386	408
Cc1noc(N[S+](=O)([O-])c2ccc(N)cc2)c1C	464	457	426	460	468	463	448	457	456
CC(C)[C@H](C(=O)Nc1ccc(C(=O)NO)cc1)c1ccccc1	361	368	364	351	346	350	340	346	342
c1cc2c(cc1[C@H]1OC[C@H]3[C@@H]1CO[C@@H]3c1ccc3c(c1)OCO3)OCO2	467	462	456	470	452	473	468	454	455
Cc1nc2ccc(CN(C)c3ccc(C(=O)N[C@@H](CCC(=O)O)C(=O)O)s3)cc2c(=O)[nH]1	315	413	305	287	331	321	298	432	295
CCOC(=O)c1c(CSc2ccccc2)n(C)c2cc(Br)c(O)c(CN(C)C)c12	471	461	450	464	461	464	463	459	469
c1ccc2c(CN3CCNCC3)cccc2c1	462	455	456	–	–	–	465	473	454
OC1=C(Cl)C=C(N\C2=C(\C(=O)NC2=O)C3=C(C=CC=C3)[N+]([O-])=O)C=C1	400	431	427	457	456	459	419	426	434
Cc1n[nH]c2ccc(-c3cncc(OC[C@@H](N)Cc4ccccc4)c3)cc12	324	365	348	371	335	355	312	341	347
NC(=O)c1nnn(Cc2cc(Cl)c(C(=O)c3ccc(Cl)cc3)c(Cl)c2)c1N	465	455	470	463	465	464	471	462	464
CC(=O)N(O)CCCCCNC(=O)CCC(=O)N(O)CCCCCNC(=O)CCC(=O)N(O)CCCCCN.C[S+](=O)([O-])O	204	199	261	115	225	249	–	–	–
COc1cc(C[C@@H](CO)[C@H](CO)Cc2ccc(O)c(OC)c2)ccc1O	467	456	476	464	457	439	452	444	455
COc1cccc(OC)c1-c1cc(C(=O)NC2(C(=O)O)C3CC4CC(C3)CC2C4)nn1-c1ccnc2cc(Cl)ccc12 (configuration not stated)	447	473	455	456	472	454	467	467	461
CN1CCN(CC1)C2=CC3=C([NH]C(=N3)C/4=C(\N)C5=C(F)C=CC=C5NC4=O)C=C2	418	440	433	420	395	399	161	178	152
Nc1ncnc2nc(-c3ccc(N4CCOCC4)nc3)cc(-c3cccc(Br)c3)c12	463	475	460	460	439	467	470	471	470
COc1cc2c(cc1O)CCC1C2CC[C@@]2(C)C1CC[C@@H]2O (some centres not stated)	390	412	404	359	368	382	–	–	–
O=C(Nc1ccccc1)Nc1ccc(-c2ccc(C(=O)[C@@H]3CCC[C@H]3C(=O)O)cc2)cc1	406	441	409	444	444	443	476	467	468
C/C=C(\C)C(=O)N[C@@H](c1ccccc1)[C@@H](O)C(=O)O[C@H]1C[C@@]2(O)[C@@H](OC(=O)c3ccccc3)[C@@H]3[C@]4(OC(C)=O)CO[C@@H]4C[C@H](O)[C@@]3(C)C(=O)[C@H](OC(C)=O)C(=C1C)C2(C)C	–	–	–	102	85.3	130	104	85.3	87.7
c1coc(CNc2ncnc3nc[nH]c23)c1	455	461	445	437	464	467	460	469	473
Clc1ccc(C(c2ccc(Cl)cc2)[n+]2ccn(CC(OCc3ccc(Cl)cc3Cl)c3ccc(Cl)cc3Cl)c2)cc1 (configuration not stated)	441	441	440	438	432	444	432	415	440
